Measured values taken from ChEMBL document CHEMBL4364263, “Synthesis and biological evaluation of 2,4,5-trisubstituted thiazoles as antituberculosis agents effective against drug-resistant tuberculosis” (Eur J Med Chem, 2019).
≈ marks a conversion by molar mass, not a printed value. Calls of active or inactive are those of the source. No cut-off for these calls is given here.

Assays:
[1] = test system: Mycobacterium tuberculosis; experiment: Antitubercular activity against replicating Mycobacterium tuberculosis H37Rv assessed as growth inhibition measured after 7 days incubation by microplate alamar blue assay; type: functional; settings: 168 h
[2] = test system: Mycobacterium tuberculosis; experiment: Antimycobacterial activity against dormant stage of Mycobacterium tuberculosis H37Ra ATCC 25177 assessed as growth inhibition at 10 uM incubated for 12 days by XRMA method relative to control; type: functional; settings: H37Ra ATCC 25177, 288 h
[3] = test system: Escherichia coli; experiment: Antibacterial activity against Escherichia coli ATCC 25922 assessed as growth inhibition incubated for 18 to 24 hrs by broth microdilution based antibiotic susceptibility testing method; type: functional
[4] = test system: Acinetobacter baumannii; experiment: Antibacterial activity against Acinetobacter baumannii BAA-1605 assessed as growth inhibition incubated for 18 to 24 hrs by broth microdilution based antibiotic susceptibility testing method; type: functional
[5] = test system: Pseudomonas aeruginosa; experiment: Antibacterial activity against Pseudomonas aeruginosa ATCC 27853 assessed as growth inhibition incubated for 18 to 24 hrs by broth microdilution based antibiotic susceptibility testing method; type: functional
[6] = test system: CHO-K1; experiment: Cytotoxicity against CHOK1 cells assessed as reduction in cell viability incubated for 24 hrs by MTT assay; type: cell-based; settings: Cricetulus griseus, CHO-K1, 24 h
[7] = test system: MCF7; experiment: Cytotoxicity against human MCF7 cells assessed as cell viability at 10 uM incubated for 24 hrs by MTT assay; type: cell-based; settings: mcf7, 24 h
[8] = test system: Mycobacteroides abscessus; experiment: Antimycobacterial activity against Mycobacterium abscessus assessed as growth inhibition; type: functional, organism-based
[9] = test system: Mycolicibacterium fortuitum; experiment: Antimycobacterial activity against Mycobacterium fortuitum assessed as growth inhibition; type: functional, organism-based
[10] = test system: Staphylococcus aureus; experiment: Antibacterial activity against Staphylococcus aureus ATCC 29213 assessed as growth inhibition incubated for 18 to 24 hrs by broth microdilution based antibiotic susceptibility testing method; type: functional
[11] = test system: Mycobacteroides chelonae; experiment: Antimycobacterial activity against Mycobacterium chelonae assessed as growth inhibition; type: functional, organism-based
[12] = Selectivity index, ratio of IC50 for CHOK1 cells to MIC for Mycobacterium tuberculosis H37Rv; type: toxicity; settings: hamster, CHO-K1 cells; read-out: Selectivity Index
[13] = test system: Klebsiella pneumoniae; experiment: Antibacterial activity against Klebsiella pneumoniae BAA-1705 assessed as growth inhibition incubated for 18 to 24 hrs by broth microdilution based antibiotic susceptibility testing method; type: functional; settings: ATCC BAA-1705
[14] = test system: B16-F10; experiment: Cytotoxicity against mouse B16F10 cells assessed as cell viability at 10 uM incubated for 24 hrs by MTT assay; type: cell-based; settings: b16-f10, 24 h
[15] = test system: CHO-K1; experiment: Cytotoxicity against CHOK1 cells assessed as cell viability at 8 ug/ml incubated for 24 hrs by MTT assay; type: cell-based, Cricetulus griseus; settings: chinese hamster, cho-k1, 24 h
[16] = test system: Mycobacterium tuberculosis; experiment: Antitubercular activity against Mycobacterium tuberculosis H37Rv ATCC 27294 assessed as bacterial growth inhibition incubated for 5 days by standard microdilution method; type: functional; settings: H37Rv ATCC 27294, 120 h

Compound | MIC [1] [µg/mL] | inhibition at 10 µM [2] [%] | other results
CCOC(=O)c1nc(C2CCCCC2)sc1-c1cnc2ccccc2c1 | 4.5 (≈ 12.3 µM) | 86.5 | 
CC(C)c1nc(C(=O)NCc2ccc(Cl)c(F)c2)c(-c2ccc(C#N)cc2)s1 | > 34 |  | 
CCOC(=O)c1nc(C(C)C)sc1-c1ccc2c(c1)OCO2 | 7.9 (≈ 24.7 µM) | 90.1 | 
CC(C)c1nc(C(=O)NCc2ccc3c(c2)OCO3)c(-c2ccc(C#N)cc2)s1 | > 34 |  | 
C[C@H]1COc2c(N3CCN(C)CC3)c(F)cc3c(=O)c(C(=O)O)cn1c23 [LEVOFLOXACIN] |  |  | MIC [3]: < 30 µM; MIC [4]: 8 µM (≈ 2.89 µg/mL)
CC(C)c1nc(C(=O)NCc2cc(Cl)cc(Cl)c2)c(-c2ccc(C#N)cc2)s1 | > 34 |  | 
N#Cc1ccc(-c2sc(C3CCCCC3)nc2C(=O)NCc2ccc3c(c2)OCO3)cc1 | > 34 |  | 
CC(C)c1nc(C(=O)NCc2ccc(F)cc2)c(-c2ccc(C#N)cc2)s1 | > 34 |  | 
C[C@@H](NC(=O)c1nc(C2CCCCC2)sc1-c1ccc(C#N)cc1)c1ccccc1 | 10.3 (≈ 24.8 µM) | 57.8 | 
CCOC(=O)c1nc(C2CCCCC2)sc1-c1ccccc1C#N | 4.2 (≈ 12.3 µM) | 91.7 | MIC [5]: > 50 µM; IC50 [6]: > 50 µg/mL; MIC [3]: > 50 µM; Activity [7]: Non-Toxic; inhibition [8]: inactive; inhibition [9]: inactive; MIC [10]: 50 µM (≈ 17 µg/mL); inhibition [11]: inactive; selectivity ratio [12]: > 11.9; MIC [13]: > 50 µM; Activity [14]: Non-Toxic
CCOC(=O)c1nc(C(C)C)sc1-c1cccc(C#N)c1 | 15 to 17 (≈ 49.9 to 56.6 µM) |  | 
COc1ccc(CCNC(=O)c2nc(C(C)C)sc2-c2ccc3c(c2)OCO3)cc1OC | 5.6 (≈ 12.3 µM) | 84.9 | 
Cc1nc(C(=O)N2CCOCC2)c(-c2ccc(C#N)cc2)s1 | > 34 |  | 
CC(C)c1nc(C(=O)N[C@@H](C)c2ccccc2)c(-c2ccc(C#N)cc2)s1 | 18.7 (≈ 49.8 µM) | 73.2 | 
CCOC(=O)c1nc(C2CCCCC2)sc1-c1ccc(C#N)cc1 | 2.1 (≈ 6.17 µM) | 90.5 | MIC [5]: > 50 µM; IC50 [6]: 75.2 µg/mL (≈ 221 µM); MIC [3]: > 50 µM; Activity [7]: Non-Toxic; inhibition [8]: inactive; inhibition [9]: inactive; MIC [10]: 50 µM (≈ 17 µg/mL); inhibition [11]: inactive; selectivity ratio [12]: 35.8; Activity [15]: Non-Toxic; MIC [13]: > 50 µM; Activity [14]: Non-Toxic
CCOC(=O)c1nc(C(C)C)sc1-c1ccc2nccnc2c1 | 8.1 (≈ 24.7 µM) | 19.5 | 
CCOC(=O)c1nc(C)sc1-c1ccc2c(c1)OCO2 | 13.6 (≈ 46.7 µM) |  | 
CC(C)c1nc(C(=O)NCc2ccc(Cl)cc2)c(-c2ccc(C#N)cc2)s1 | > 34 |  | 
CO[C@H]1/C=C/O[C@@]2(C)Oc3c(C)c(O)c4c(O)c(c(/C=N/N5CCN(C)CC5)c(O)c4c3C2=O)NC(=O)/C(C)=C\C=C\[C@H](C)[C@H](O)[C@@H](C)[C@@H](O)[C@@H](C)[C@H](OC(C)=O)[C@@H]1C [RIFAMPIN] | 0.2 (≈ 0.243 µM) |  | 
Cc1nc(C(=O)NCc2ccc3c(c2)OCO3)c(-c2ccc(C#N)cc2)s1 | > 34 |  | 
CCOC(=O)c1nc(C(C)C)sc1-c1cccc2cnccc12 | 16.3 (≈ 49.9 µM) |  | 
C[C@H](NC(=O)c1nc(C2CCCCC2)sc1-c1ccc(C#N)cc1)c1ccccc1 | 20.7 (≈ 49.8 µM) |  | 
CCOC(=O)c1nc(C2CCCCC2)sc1-c1ccc2c(c1)NC(=O)CO2 | 19.3 (≈ 49.9 µM) |  | 
Cc1ccc(C(C)NC(=O)c2nc(C(C)C)sc2-c2ccc(C#N)cc2)cc1 (stereo unspecified) | > 34 |  | 
Cc1nc(C(=O)N[C@H](C)c2ccccc2)c(-c2ccc(C#N)cc2)s1 | > 34 | 74 | 
COc1ccc(CCNC(=O)c2nc(C)sc2-c2ccc(C#N)cc2)cc1OC | > 34 | 67.3 | 
COc1ccc(CCNC(=O)c2nc(C3CCCCC3)sc2-c2ccc(C#N)cc2)cc1OC | 5.9 (≈ 12.4 µM) | 71.6 | 

Compound | MIC [1] [µg/mL] | inhibition at 10 µM [2] [%] | other results
CC(C)c1nc(C(=O)N[C@H](C)c2ccccc2)c(-c2ccc(C#N)cc2)s1 | 9.3 (≈ 24.8 µM) | 86.7 | 
CCOC(=O)c1nc(C2CCCCC2)sc1-c1cccc2cnccc12 | 4.5 (≈ 12.3 µM) | 96 | 
CCOC(=O)c1nc(C)sc1-c1ccc(C#N)cc1 | 14.5 (≈ 53.2 µM) | 20.2 | 
COc1ccc(CCNC(=O)c2nc(C(C)C)sc2-c2ccc(C#N)cc2)cc1OC | 5.4 (≈ 12.4 µM) | 89.4 | 
CCOC(=O)c1nc(C2CCCCC2)sc1-c1cccc(C#N)c1 | 4.2 (≈ 12.3 µM) | 90.3 | MIC [5]: > 50 µM; IC50 [6]: > 50 µg/mL; MIC [3]: > 50 µM; Activity [7]: Non-Toxic; inhibition [8]: inactive; inhibition [9]: inactive; MIC [10]: 50 µM (≈ 17 µg/mL); inhibition [11]: inactive; selectivity ratio [12]: > 11.9; MIC [13]: > 50 µM; Activity [14]: Non-Toxic
CC(C)c1nc(C(=O)NCc2cccnc2)c(-c2ccc3c(c2)OCO3)s1 | 9.5 (≈ 24.9 µM) | 87.1 | 
COc1ncnc(Cn2cc(C(=O)NCCO)c3ncc(C)cc32)c1C [TBA-7371] |  |  | MIC [16]: 0.78 to 3.12 µM (≈ 0.277 to 1.11 µg/mL)
CO[C@@]12[C@H](COC(N)=O)C3=C(C(=O)C(C)=C(N)C3=O)N1C[C@@H]1N[C@@H]12 [MITOMYCIN] |  |  | IC50 [6]: 13.1 µg/mL (≈ 39.2 µM)
CCOC(=O)c1nc(C(C)C)sc1-c1ccc(C#N)cc1 | 1.8 (≈ 5.99 µM) | 82.7 | MIC [5]: > 50 µM; IC50 [6]: 40.5 µg/mL (≈ 135 µM); MIC [3]: > 50 µM; Activity [7]: Non-Toxic; inhibition [8]: inactive; inhibition [9]: inactive; MIC [10]: > 50 µM; inhibition [11]: inactive; selectivity ratio [12]: 22.4; MIC [13]: > 50 µM; Activity [14]: Non-Toxic
CC(C)c1nc(C(=O)NCc2ccccc2)c(-c2ccc(C#N)cc2)s1 | > 34 |  | 
CC(C)c1nc(C(=O)N[C@@H](C)c2ccccc2)c(-c2ccc3c(c2)OCO3)s1 | 4.9 (≈ 12.4 µM) | 90.8 | 
N#Cc1ccc(-c2sc(C3CCCCC3)nc2C(=O)NCc2cccnc2)cc1 | > 34 |  | 
Cc1nc(C(=O)N[C@@H](C)c2ccccc2)c(-c2ccc(C#N)cc2)s1 | > 34 | 73.5 | 
CCOC(=O)c1nc(C2CCCCC2)sc1-c1ccc2c(c1)OCO2 | 8.9 (≈ 24.8 µM) | 92 | 
N#Cc1ccc(-c2sc(C3CCCCC3)nc2C(=O)N2CCOCC2)cc1 | > 34 |  | 
CC(C)c1nc(C(=O)N2CCOCC2)c(-c2ccc(C#N)cc2)s1 | > 34 |  | 
CC(C)c1nc(C(=O)N[C@H](C)c2cccc3ccccc23)c(-c2ccc(C#N)cc2)s1 | > 34 |  | 
CC(C)c1nc(C(=O)NC(C)c2ccc(Br)cc2)c(-c2ccc(C#N)cc2)s1 (stereo unspecified) | > 34 |  | 
CCOC(=O)c1nc(C(C)C)sc1-c1ccccc1C#N | 15 (≈ 49.9 µM) |  | 
CC(C)c1nc(C(=O)NCc2cccnc2)c(-c2ccc(C#N)cc2)s1 | > 34 |  | 
Cc1nc(C(=O)NCc2cccnc2)c(-c2ccc(C#N)cc2)s1 | > 34 |  | 
CC(C)c1nc(C(=O)NCc2ccc3c(c2)OCO3)c(-c2ccc3c(c2)OCO3)s1 | 10.6 (≈ 25 µM) | 82.2 | 
CCOC(=O)c1nc(C(C)C)sc1-c1cnc2ccccc2c1 | 4 (≈ 12.3 µM) | 80.5 | MIC [5]: > 50 µM; IC50 [6]: > 50 µg/mL; MIC [3]: > 50 µM; Activity [7]: Non-Toxic; inhibition [8]: inactive; inhibition [9]: inactive; MIC [10]: > 50 µM; inhibition [11]: inactive; selectivity ratio [12]: > 12.5; MIC [13]: > 50 µM; Activity [14]: Non-Toxic
CC(C)c1nc(C(=O)N[C@H](C)c2ccccc2)c(-c2ccc3c(c2)OCO3)s1 | 4.9 (≈ 12.4 µM) | 90.9 | 
CCOC(=O)c1nc(C(C)C)sc1-c1ccc2c(c1)NC(=O)CO2 | > 34 |  | 
CC(C)c1nc(C(=O)N2CCOCC2)c(-c2ccc3c(c2)OCO3)s1 | > 34 |  | 
CCOC(=O)c1nc(C2CCCCC2)sc1-c1ccc2nccnc2c1 | 4.5 (≈ 12.2 µM) | 93.3 | 
